Values belong to the molecule of their own block, whether it stands above or below them.
Assays:
[1] = target: T1, 14-3-3σ/C-RAF259 (Homo sapiens, UniProt P31947); assay: FA protein titration, C-RAF259 peptide; details: appKd DMSO / appKd compound
[2] = target: T1, 14-3-3σ/C-RAF259; assay: Fluorescence anisotropy (FA) compound titration; type: binding; details: 10 nM C-RAF259-FAM 10-mer, 5 μΜ 14-3-3σ, overnight; read-out: Compound titrations EC50 value C-RAF259
Description: (§1) In analogy to our previous work, two orthogonal assays were used for screening (Figure S2). […] Dose responses of compounds were performed in the absence and presence of the C-RAF259 phospho-peptide to distinguish between neutral binders and cooperative molecular glues. The experiment was performed as a time course, with measurements every 8 h, after an 1 h incubation. Additionally, the compounds were tested in a fluorescence anisotropy (FA) assay in the presence of the 5-carboxyfluorescein-(FAM)-labeled C-RAF259 peptide. […] The full dose–response data for all compounds are available in the SI (Tables S2–S5, Figures S5–S8, Figures S15–S18, Figures S25–S32, Figures S37–S39). The dose–response data from both assays were also visually compared in the form of bar graphs. […] For FA experiments, the EC50 values from the overnight measurement were calculated and plotted as bar graphs showing the […] log EC50 value (pEC50). Compounds acting as MGs were expected to show increases in both types of bar graphs.
(§2) transferred in the assay plates.
(§3) The reacton mixtures were incubated
(§4) dispensed in the assay plates.
(§5) incubaton at room temperature .

[3] = target: T2, 14-3-3σ (Homo sapiens, UniProt P31947); assay: Intact mass spectrometry assay, apo (no peptide); type: binding; set-up: full-length for mass spectrometry and fluorescence anisotropy assays; made in house; host or cells: E. coli Rosetta 2(DE3)pLysS, pPROEX HTb vector; details: 1 μM compound, 100 nM 14-3-3σ
T2 sequence (P31947 1-248): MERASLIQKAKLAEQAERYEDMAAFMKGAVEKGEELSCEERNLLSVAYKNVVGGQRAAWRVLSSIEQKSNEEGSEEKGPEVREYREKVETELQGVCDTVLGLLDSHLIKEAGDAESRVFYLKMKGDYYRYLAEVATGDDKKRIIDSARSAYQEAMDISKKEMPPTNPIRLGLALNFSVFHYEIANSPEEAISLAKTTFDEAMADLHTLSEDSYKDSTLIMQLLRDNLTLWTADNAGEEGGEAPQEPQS
Description: as §1, §2, §3, §4, §5

[4] = target: T1, 14-3-3σ/C-RAF259; assay: Intact mass spectrometry assay with C-RAF259 phospho-peptide; type: binding; set-up: full-length for mass spectrometry and fluorescence anisotropy assays; made in house; host or cells: E. coli Rosetta 2(DE3)pLysS (14-3-3σ); peptides from Elim Biopharmaceuticals; details: 1 μM compound, 100 nM 14-3-3σ, 18 µM peptide
Description: as §1, §2, §3, §4, §5

Structure (SMILES): O=C(CCl)NCC1CCN(S(=O)(=O)c2ccc(Cl)c(C(F)(F)F)c2)CC1 [Compound 31]
- Fold stabilization (100 µM compound), C-RAF259 (10mer) [1]: 2 fold
- EC50 [2]: 8 ± 1 µM
- % bound, APO, 1h [3]: 0.9%
- % bound, APO, 8h [3]: 1.9%
- % bound, APO, 16h [3]: 2.5%
- % bound, APO, 24h [3]: 3.8%
- % bound, C-RAF259 (11mer), 8h [4]: 38.1%
- % bound, C-RAF259 (11mer), 16h [4]: 59.1%
- % bound, C-RAF259 (11mer), 24h [4]: 81.4%

Structure (SMILES): O=C(CCl)NCC1CCN(S(=O)(=O)c2ccc(Br)cc2F)CC1 [Compound 36]
- Fold stabilization (100 µM compound), C-RAF259 (10mer) [1]: 18 fold
- EC50 [2]: 25 ± 2 µM
- % bound, APO, 1h [3]: 0%
- % bound, APO, 8h [3]: 0.9%
- % bound, APO, 16h [3]: 2.9%
- % bound, APO, 24h [3]: 4.5%
- % bound, C-RAF259 (11mer), 1h [4]: 20.6%
- % bound, C-RAF259 (11mer), 8h [4]: 41.1%
- % bound, C-RAF259 (11mer), 16h [4]: 69.5%
- % bound, C-RAF259 (11mer), 24h [4]: 91.7%

Structure (SMILES): O=C(CCl)NCC1CCN(S(=O)(=O)c2ccc(Br)c(F)c2F)CC1 [Compound 38]
- Fold stabilization (100 µM compound), C-RAF259 (10mer) [1]: 39 fold
- EC50 [2]: 2 ± 1 µM
- % bound, APO, 1h [3]: 0%
- % bound, APO, 8h [3]: 0.9%
- % bound, APO, 16h [3]: 2.9%
- % bound, APO, 24h [3]: 4.4%
- % bound, C-RAF259 (11mer), 1h [4]: 28%
- % bound, C-RAF259 (11mer), 8h [4]: 43.9%
- % bound, C-RAF259 (11mer), 16h [4]: 61.9%
- % bound, C-RAF259 (11mer), 24h [4]: 83.3%

Structure (SMILES): O=C(CCl)NCC1CCN(S(=O)(=O)c2cc(F)c(Br)cc2F)CC1 [Compound 39]
- Fold stabilization (100 µM compound), C-RAF259 (10mer) [1]: 7 fold
- EC50 [2]: 17 ± 3 µM
- % bound, APO, 1h [3]: 0%
- % bound, APO, 8h [3]: 1.9%
- % bound, APO, 16h [3]: 3.8%
- % bound, APO, 24h [3]: 3.8%
- % bound, C-RAF259 (11mer), 1h [4]: 39.3%
- % bound, C-RAF259 (11mer), 8h [4]: 64.6%
- % bound, C-RAF259 (11mer), 16h [4]: 78.1%
- % bound, C-RAF259 (11mer), 24h [4]: 96.7%

Structure (SMILES): O=C(CCl)NCC1CCN(S(=O)(=O)c2cc(F)c(Br)c(F)c2)CC1 [Compound 40]
- Fold stabilization (100 µM compound), C-RAF259 (10mer) [1]: 13 fold
- EC50 [2]: 2 ± 1 µM
- % bound, APO, 1h [3]: 0%
- % bound, APO, 8h [3]: 0.5%
- % bound, APO, 16h [3]: 1.5%
- % bound, APO, 24h [3]: 4.7%
- % bound, C-RAF259 (11mer), 1h [4]: 35.9%
- % bound, C-RAF259 (11mer), 8h [4]: 60.5%
- % bound, C-RAF259 (11mer), 16h [4]: 78.9%
- % bound, C-RAF259 (11mer), 24h [4]: 93.9%

Structure (SMILES): CC1(CNC(=O)CCl)CCN(S(=O)(=O)c2ccc(Br)c(F)c2)CC1 [Compound 46]
- Fold stabilization (100 µM compound), C-RAF259 (10mer) [1]: 49 fold
- EC50 [2]: 11 ± 1 µM
- % bound, APO, 1h [3]: 0.5%
- % bound, APO, 8h [3]: 1.9%
- % bound, APO, 16h [3]: 4.7%
- % bound, APO, 24h [3]: 8.2%
- % bound, C-RAF259 (11mer), 1h [4]: 25.8%
- % bound, C-RAF259 (11mer), 8h [4]: 39.4%
- % bound, C-RAF259 (11mer), 16h [4]: 49%
- % bound, C-RAF259 (11mer), 24h [4]: 84%

Structure (SMILES): O=C(CCl)N1CC2CC1CN2S(=O)(=O)c1ccc(Br)c(F)c1 (stereo not shown) [Compound 58]
- Fold stabilization (100 µM compound), C-RAF259 (10mer) [1]: 6 fold
- EC50 [2]: 12 ± 1 µM
- % bound, APO, 1h [3]: 4.7%
- % bound, APO, 8h [3]: 17.3%
- % bound, APO, 16h [3]: 28%
- % bound, APO, 24h [3]: 51.8%
- % bound, C-RAF259 (11mer), 1h [4]: 16.5%
- % bound, C-RAF259 (11mer), 8h [4]: 45.2%
- % bound, C-RAF259 (11mer), 16h [4]: 71.2%
- % bound, C-RAF259 (11mer), 24h [4]: 80.5%

Other lines, results leading:

- Fold stabilization (100 µM compound), C-RAF259 (10mer) [1]: 14 fold
- EC50 [2]: 13 ± 3 µM
- % bound, APO, 1h [3]: 0%
- % bound, APO, 8h [3]: 0.5%
- % bound, APO, 16h [3]: 2.5%
- % bound, APO, 24h [3]: 6.5%
- % bound, C-RAF259 (11mer), 1h [4]: 20.5%
- % bound, C-RAF259 (11mer), 8h [4]: 41.3%
- % bound, C-RAF259 (11mer), 16h [4]: 69.5%
- % bound, C-RAF259 (11mer), 24h [4]: 91.3%
Structure (SMILES): O=C(CCl)NCC1CCN(S(=O)(=O)c2ccc(OC(F)(F)F)cc2)CC1 [Compound 19]

- Fold stabilization (100 µM compound), C-RAF259 (10mer) [1]: 9 fold
- EC50 [2]: 5 ± 1 µM
- % bound, APO, 8h [3]: 2.9%
- % bound, APO, 16h [3]: 4.4%
- % bound, APO, 24h [3]: 7.4%
- % bound, C-RAF259 (11mer), 1h [4]: 2.9%
- % bound, C-RAF259 (11mer), 8h [4]: 6.5%
- % bound, C-RAF259 (11mer), 16h [4]: 10.7%
- % bound, C-RAF259 (11mer), 24h [4]: 32.2%
Structure (SMILES): O=Cc1ccc(S(=O)(=O)N2CCC(CNC(=O)CCl)CC2)cc1 [Compound 21]

- Fold stabilization (100 µM compound), C-RAF259 (10mer) [1]: 21 fold
- EC50 [2]: 14 ± 1 µM
- % bound, APO, 1h [3]: 0%
- % bound, APO, 8h [3]: 0.5%
- % bound, APO, 16h [3]: 0.5%
- % bound, APO, 24h [3]: 1.5%
- % bound, C-RAF259 (11mer), 1h [4]: 7.3%
- % bound, C-RAF259 (11mer), 8h [4]: 13.7%
- % bound, C-RAF259 (11mer), 16h [4]: 26.7%
- % bound, C-RAF259 (11mer), 24h [4]: 51.8%
Structure (SMILES): Cc1ccc(S(=O)(=O)N2CCC(CNC(=O)CCl)CC2)cc1 [Compound 24]

- Fold stabilization (100 µM compound), C-RAF259 (10mer) [1]: 3 fold
- EC50 [2]: 12 ± 2 µM
- % bound, APO, 1h [3]: 1%
- % bound, APO, 8h [3]: 2.5%
- % bound, APO, 16h [3]: 6.5%
- % bound, APO, 24h [3]: 22.5%
- % bound, C-RAF259 (11mer), 1h [4]: 11%
- % bound, C-RAF259 (11mer), 8h [4]: 24.8%
- % bound, C-RAF259 (11mer), 16h [4]: 41.8%
- % bound, C-RAF259 (11mer), 24h [4]: 60.3%
Structure (SMILES): O=C(CCl)NCC1CCN(S(=O)(=O)c2ccc(F)c(Cl)c2)CC1 [Compound 30]

- Fold stabilization (100 µM compound), C-RAF259 (10mer) [1]: 13 fold
- EC50 [2]: 9 ± 1 µM
- % bound, APO, 1h [3]: 0%
- % bound, APO, 8h [3]: 0%
- % bound, APO, 16h [3]: 0.9%
- % bound, APO, 24h [3]: 0.9%
- % bound, C-RAF259 (11mer), 1h [4]: 7.7%
- % bound, C-RAF259 (11mer), 8h [4]: 18.5%
- % bound, C-RAF259 (11mer), 16h [4]: 31.8%
- % bound, C-RAF259 (11mer), 24h [4]: 50.3%
Structure (SMILES): COc1ccc(S(=O)(=O)N2CCC(CNC(=O)CCl)CC2)cc1F [Compound 33]
